Results: patent US8722642B2, “Multiantivirus compound, composition and method for treatment of virus diseases” (Biocell Laboratories, priority 2011, dated 2014)

Columns and labels:
[1] = tested on: hemagglutinin of influenza virus AFM 1/47 (H1N1); assay: Hemagglutination reaction: influence on hemagglutinin activity of influenza virus; assay type: biochemical
[2] = tested on: influenza virus A/FM/1/47(H1N1), adapted for lungs of white mice; assay: Model of influenza pneumonia in mice; assay type: in vivo; conditions: Tamiflu, dose not given, intra-abdominal

Compound: Polyinosylic acid [Poly I]
- Difference in virus titers ([1]; concentration 10 mg/ml): 3 lg2^X
- Virus titer in the experiment ([1]; concentration 10 mg/ml, […]): 6 lg2^X

Compound: Polyadenylic acid [Poly A]
- Difference in virus titers ([1]; concentration 10 mg/ml): 2 lg2^X
- Virus titer in the experiment ([1]; concentration 10 mg/ml, […]): 7 lg2^X

Compound: Polyurydylic acid [Poly U]
- Difference in virus titers ([1]; concentration 10 mg/ml): 2 lg2^X
- Virus titer in the experiment ([1]; concentration 10 mg/ml, […]): 9 lg2^X

Compound: Polyinosinic:polycytidylic acid [PolyIC]
- Difference in virus titers ([1]; concentration 10 mg/ml): 3 lg2^X
- Virus titer in the experiment ([1]; concentration 10 mg/ml, […]): 9 lg2^X

Compound: Poliguanylic acid [Poly G]
- Difference in virus titers ([1]; concentration 10 mg/ml): 0 lg2^X
- Virus titer in the experiment ([1]; concentration 10 mg/ml, […]): 9 lg2^X

Compound: CCOC(=O)C1=C[C@@H](OC(CC)CC)[C@H](NC(C)=O)[C@@H](N)C1 [Tamiflu, Oseltamivir]
- % died ([2]; preventive regimen): 30 ± 1.0%
- CP (Coefficient of protection) ([2]; preventive regimen): 5.0
- IE (Index of effectiveness) ([2]; preventive regimen): 70.0
- % died ([2]; treatment regimen): 20.0 ± 0.5%
- CP (Coefficient of protection) ([2]; treatment regimen): 10.0
- IE (Index of effectiveness) ([2]; treatment regimen): 80.0

Compound: OC[C@@H](O)[C@@H](O)[C@H](O)[C@H](O)CO [Mannitol]
- Difference in the virus titers ([1]; 0.5 mg/ml, temperature of reaction 30 ° C.): 0 log2x
- Virus titer in the experiment ([1]; 0.5 mg/ml, temperature of reaction 30 ° C., control virus 8): 8 log2x

Compound: Polycytydilic acid [Poly C]
- Difference in virus titers ([1]; concentration 10 mg/ml): 2 lg2^X
- Virus titer in the experiment ([1]; concentration 10 mg/ml, […]): 7 lg2^X
